Data on five compounds can be found in US9216971B2 (priority 2007, dated 2015).

Read-outs that look alike come from different tables or passages of the source.

The target in experiment [1] is T1, hM3 muscarinic receptor subtype (Homo sapiens, UniProt P20309).
T1 construct: expressed in transfected cells; membranes prepared
The experiment is described as follows: biochemical. In kind it is binding.

The next experiment addresses T2, hM2 receptor (Homo sapiens, UniProt P08172).
T2 construct: expressed in transfected cells; host or cells: CHO-K1 cells
T2 sequence (P08172 1-466): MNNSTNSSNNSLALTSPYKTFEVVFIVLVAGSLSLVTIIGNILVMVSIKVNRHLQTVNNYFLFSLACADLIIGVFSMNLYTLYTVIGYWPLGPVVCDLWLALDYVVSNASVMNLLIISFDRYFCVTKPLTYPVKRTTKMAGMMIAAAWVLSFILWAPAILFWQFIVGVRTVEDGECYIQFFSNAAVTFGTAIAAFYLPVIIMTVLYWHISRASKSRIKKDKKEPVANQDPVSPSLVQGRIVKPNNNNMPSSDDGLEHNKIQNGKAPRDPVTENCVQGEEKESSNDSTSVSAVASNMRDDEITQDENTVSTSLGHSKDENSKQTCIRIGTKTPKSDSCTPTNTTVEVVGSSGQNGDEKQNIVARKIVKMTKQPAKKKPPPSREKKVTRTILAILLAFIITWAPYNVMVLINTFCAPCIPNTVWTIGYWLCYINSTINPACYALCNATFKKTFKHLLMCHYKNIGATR
As to the kind of experiment: Blockade of agonist-mediated inhibition of cAMP accumulation. The following applies: CHO-K1 cells expressing the hM2 receptor; read-out: Ki for blockade of oxotremorine-inhibition of forskolin-mediated cAMP accumulation. In kind it is cell-based.

The subject of a further experiment is MCh response. The following applies: rat.
The test system of experiment [2] is pilocarpine-induced salivation. As to the kind of experiment: Rat antisialagogue assay. It counts as in vivo. Conditions: evaluated at 1, 6, and 24 hours post-dose. As for the experimental part:
Rats (Sprague-Dawley, male, 250-350 g) are dosed, anesthetized and cannulated as described for Assay 3. At predetermined time points and after surgery, animals are placed on their dorsal side at a 20° incline with their head in a downward slope. A pre-weighed gauze pad is inserted in the animal's mouth and the muscarinic agonist pilocarpine (PILO) (3 mg/kg, IV) is administered. Saliva produced during 10 minutes post-PILO is measured gravimetrically by determining the weight of the gauze pad before and after PILO. Antisialagogue effects are expressed as % inhibition of salivation relative to control animals.
The rat antisialagogue assay was developed to assess systemic exposure and calculate the lung selectivity index (LSI) of test compounds. The standard, tiotropium, was evaluated in this model at 1, 6, and 24 hours post-dose. […] This finding is consistent with the peak effects observed in the Einthoven assay.
This model is a modified version of the procedure described in Rechter, “Estimation of anticholinergic drug effects in mice by antagonism against pilocarpine-induced salivation” Ata Pharmacol Toxicol 24:243-254 (1996). The mean weight of saliva in vehicle-treated animals, at each pre-treatment time, is calculated and used to compute % inhibition of salivation, at the corresponding pre-treatment time, at each dose.

T1 sequence (P20309 whole entry): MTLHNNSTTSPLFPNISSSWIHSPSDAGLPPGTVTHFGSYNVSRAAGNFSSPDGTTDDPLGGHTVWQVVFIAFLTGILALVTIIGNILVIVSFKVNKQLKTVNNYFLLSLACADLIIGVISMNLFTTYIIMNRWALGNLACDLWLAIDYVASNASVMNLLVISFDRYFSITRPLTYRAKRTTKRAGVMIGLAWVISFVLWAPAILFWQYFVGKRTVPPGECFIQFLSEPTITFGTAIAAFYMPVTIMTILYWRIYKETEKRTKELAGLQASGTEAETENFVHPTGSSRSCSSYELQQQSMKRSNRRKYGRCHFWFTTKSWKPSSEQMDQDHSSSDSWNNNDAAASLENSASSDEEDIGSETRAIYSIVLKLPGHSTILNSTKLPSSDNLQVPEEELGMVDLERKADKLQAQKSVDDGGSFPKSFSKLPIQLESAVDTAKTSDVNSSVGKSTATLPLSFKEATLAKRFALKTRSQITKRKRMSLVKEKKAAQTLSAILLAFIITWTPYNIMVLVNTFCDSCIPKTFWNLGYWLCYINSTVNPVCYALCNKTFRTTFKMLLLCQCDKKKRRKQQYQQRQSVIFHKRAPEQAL

For the compound `C[N+](C)(CCc1ccccc1)C1CCN(C(=O)[C@](O)(c2ccccc2)C2CCCC2)CC1` [Example 1, [1-((R)-2-cyclopentyl-2-hydroxy-2-phenylacetyl)piperidin-4-yl]dimethylphenethylammonium], the Ki in experiment [1] was under 1 nM.

Regarding `C[N+](C)(CCc1cccc(O)c1)C1CCN(C(=O)[C@](O)(c2ccccc2)C2CCCC2)CC1` [Example 2, [1-((R)-2-cyclopentyl-2-hydroxy-2-phenylacetyl)piperidin-4-yl][2-(3-hydroxyphenyl)ethyl]dimethylammonium], the Ki (in experiment [1]; at hM2 receptor) was under 1 nM in each case.

With `C[N+]1(C)CCC(OC(=O)C(O)(c2ccccc2)C2CCCC2)C1` (stereo not shown) [glycopyrrolate], in the experiment with MCh response (inhalation, 1.5 hours post-dose), the “ID50 (bronchoprotective potency)” value was 15 µg/mL.

Turning to `CC(C)[N+]1(C)[C@@H]2CC[C@H]1C[C@@H](OC(=O)C(CO)c1ccccc1)C2` (stereo partly shown) [ipratropium], in the experiment with MCh response (in vivo), the “ID50 (bronchoprotective potency)” value turned out to be 4.4 µg/mL and the “fold less potent 6-hours post-dose compared to 1.5 hour potency” value was “about 3 fold”.

Take `C[N+]1(C)[C@@H]2C[C@@H](OC(=O)C(O)(c3cccs3)c3cccs3)C[C@H]1[C@@H]1O[C@@H]12` [tiotropium]: in experiment [2], the “time post dose at which most potent at inhibiting pilocarpine-induced salivation” value was determined as 6 h. In the experiment with MCh response (in vivo), the “ID50 (bronchoprotective potency)” value amounted to 6 µg/mL; the “fold more potent at 6 hour and 24 hour compared to 1.5 hour potency” value was “about 2 fold”; the “time of peak bronchoprotection post-dose” value was determined as 6 h.
